Laboratory results: ChEMBL document CHEMBL1201862, “PubChem BioAssay data set” (2004)
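Protocol summary: plate cells (96-well), add compound at 5 concentrations, incubate 48 h, interpolate endpoints linearly. GI50: concentration for 50% inhibition of growth.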 Activity calls are given as the source filed them. No stated cut-off is given here; in the data, active = GI50 up to about 1.1 µM and inactive = higher.

Columns and labels:
Assay in all cases: NCI anticancer screen, dose series, 48 h
COLO 205 = test system: COLO 205
LOX IMVI = test system: LOX IMVI
OVCAR-5 = test system: OVCAR-5
SK-MEL-5 = test system: SK-MEL-5
SNB-19 = test system: SNB-19
RPMI-8226 = test system: RPMI-8226
A498 = test system: A498
NCI-H226 = test system: NCI-H226
CCRF-CEM = test system: CCRF-CEM
HOP-92 = test system: HOP-92
SF-295 = test system: SF-295
ACHN = test system: ACHN
A549 = test system: A549
SNB-75 = test system: SNB-75
SN12C = test system: SN12C
SNB-78 = test system: SNB-78
SR = test system: SR
HCC 2998 = test system: HCC 2998

Measured: GI50

Cc1cccc(C(=O)c2cccc3ccccc23)c1C(=O)O
inactive: COLO 205 23.3 µM | LOX IMVI > 100 µM | OVCAR-5 > 100 µM | SK-MEL-5 > 100 µM | SNB-19 > 100 µM | RPMI-8226 > 100 µM | A498 > 100 µM | NCI-H226 > 100 µM | CCRF-CEM > 100 µM | HOP-92 > 100 µM | SF-295 > 100 µM | ACHN > 100 µM | A549 > 100 µM | SNB-75 > 100 µM | SN12C > 100 µM | SNB-78 > 100 µM

C#CCC1(C(=O)OCC)C(=O)c2ccccc2N(C)C1=O (configuration not stated)
inactive: COLO 205 > 100 µM | LOX IMVI > 100 µM | SK-MEL-5 70.3 µM | SNB-19 45.4 µM | RPMI-8226 68.4 µM | A498 67.5 µM | NCI-H226 62.5 µM | CCRF-CEM > 100 µM | HOP-92 36.6 µM | SF-295 > 100 µM | ACHN 93.5 µM | SNB-75 16.6 µM | SN12C 67.9 µM | SNB-78 > 100 µM

Nc1nc(N)c2nc(-c3ccco3)cnc2n1
inactive: COLO 205 65.6 µM | LOX IMVI 30.9 µM | OVCAR-5 > 100 µM | SK-MEL-5 52.5 µM | SR 39.9 µM | SNB-19 > 100 µM | RPMI-8226 > 100 µM | A498 42.2 µM | NCI-H226 > 100 µM | CCRF-CEM 43.1 µM | HOP-92 40 µM | SF-295 60.3 µM | HCC 2998 > 100 µM | ACHN 59.4 µM | A549 34.5 µM | SNB-75 28.4 µM | SN12C 85.5 µM | SNB-78 > 100 µM

COc1cccc(/C=N/[N-]C(=S)Nc2ccccc2)c1[O-].O.[Zn+2]
inactive: LOX IMVI 53.7 µM | OVCAR-5 > 100 µM | SK-MEL-5 61.1 µM | SNB-19 66.1 µM | RPMI-8226 66.8 µM | NCI-H226 37.8 µM | CCRF-CEM 29.3 µM | HOP-92 73.5 µM | SF-295 76.7 µM | HCC 2998 > 100 µM | ACHN 39.8 µM | A549 34.1 µM | SNB-75 43.7 µM | SN12C > 100 µM | SNB-78 40.1 µM

C=CCc1cc(OC)c2c(c1)C(OC(C)=O)CC(c1ccc(OC)c(OC)c1)O2 (configuration not stated)
inactive: COLO 205 > 100 µM | OVCAR-5 > 100 µM | SK-MEL-5 > 100 µM | SR > 100 µM | SNB-19 49.4 µM | NCI-H226 > 100 µM | CCRF-CEM > 100 µM | HOP-92 23.4 µM | SF-295 67.3 µM | HCC 2998 > 100 µM | ACHN > 100 µM | A549 > 100 µM | SNB-75 17.1 µM | SN12C > 100 µM | SNB-78 > 100 µM

Nc1nc(SCc2ccccc2Cl)c2[nH]cnc2n1
inactive: COLO 205 91.6 µM | LOX IMVI 44.2 µM | OVCAR-5 96.4 µM | SK-MEL-5 48.8 µM | SR 64.9 µM | SNB-19 70.1 µM | RPMI-8226 > 100 µM | A498 15 µM | CCRF-CEM 54.5 µM | SF-295 58.6 µM | HCC 2998 > 100 µM | ACHN 31.5 µM | A549 73.1 µM | SN12C 72.3 µM | SNB-78 > 100 µM

COc1ccc(/C=C/c2cc(OC)c(OCc3ccccc3)c(OC)c2)cc1
inactive: COLO 205 > 100 µM | OVCAR-5 8.99 µM | SR 26.4 µM | SNB-19 > 100 µM | RPMI-8226 57.9 µM | A498 > 100 µM | NCI-H226 > 100 µM | CCRF-CEM > 100 µM | HOP-92 89.7 µM | HCC 2998 > 100 µM | ACHN > 100 µM | A549 > 100 µM | SNB-75 > 100 µM | SN12C > 100 µM | SNB-78 > 100 µM

Nc1nc(=O)[nH]c2c1cnn2C1CCCCO1 (configuration not stated)
inactive: COLO 205 > 100 µM | LOX IMVI > 100 µM | OVCAR-5 64 µM | SK-MEL-5 70.3 µM | SR 56 µM | SNB-19 > 100 µM | RPMI-8226 > 100 µM | A498 > 100 µM | NCI-H226 39.3 µM | CCRF-CEM > 100 µM | HOP-92 > 100 µM | SF-295 > 100 µM | HCC 2998 > 100 µM | ACHN > 100 µM | A549 > 100 µM | SNB-75 > 100 µM | SN12C > 100 µM | SNB-78 > 100 µM

C=C(N=[N+]=[N-])c1cn(C2CC(O)C(CO)O2)c(=O)[nH]c1=O (configuration not stated)
inactive: COLO 205 > 100 µM | LOX IMVI > 100 µM | OVCAR-5 > 100 µM | SK-MEL-5 > 100 µM | SR > 100 µM | SNB-19 > 100 µM | RPMI-8226 > 100 µM | NCI-H226 > 100 µM | CCRF-CEM > 100 µM | HOP-92 > 100 µM | SF-295 > 100 µM | HCC 2998 > 100 µM | ACHN > 100 µM | A549 > 100 µM | SNB-75 > 100 µM | SN12C > 100 µM | SNB-78 > 100 µM

CC12C(=CC(=O)CC1SCCS(=O)(=O)O)C(C#N)=C(N)N2c1ccc(Cl)c(Cl)c1 (configuration not stated)
inactive: COLO 205 > 100 µM | LOX IMVI > 100 µM | SK-MEL-5 > 100 µM | SR > 100 µM | SNB-19 > 100 µM | RPMI-8226 > 100 µM | A498 > 100 µM | NCI-H226 > 100 µM | CCRF-CEM > 100 µM | HOP-92 30.6 µM | SF-295 > 100 µM | HCC 2998 > 100 µM | ACHN > 100 µM | A549 > 100 µM | SNB-75 > 100 µM | SN12C > 100 µM | SNB-78 > 100 µM

O=C(O)[C@@H](NS(=O)(=O)c1ccc(F)cc1)c1ccccc1
inactive: COLO 205 > 100 µM | LOX IMVI > 100 µM | OVCAR-5 > 100 µM | SK-MEL-5 > 100 µM | SNB-19 > 100 µM | RPMI-8226 > 100 µM | NCI-H226 > 100 µM | CCRF-CEM > 100 µM | SF-295 > 100 µM | HCC 2998 > 100 µM | ACHN > 100 µM | A549 > 100 µM | SNB-75 > 100 µM | SN12C > 100 µM | SNB-78 > 100 µM

COC(=O)[C@H]1N[C@@H](C(=O)OC)C23CCC[C@H]2CC[C@]1(C(OC)OC)C3
inactive: COLO 205 87.7 µM | LOX IMVI > 100 µM | OVCAR-5 > 100 µM | SK-MEL-5 > 100 µM | SNB-19 > 100 µM | RPMI-8226 > 100 µM | A498 > 100 µM | NCI-H226 > 100 µM | CCRF-CEM > 100 µM | HOP-92 > 100 µM | SF-295 > 100 µM | HCC 2998 > 100 µM | ACHN > 100 µM | A549 > 100 µM | SNB-75 > 100 µM | SN12C > 100 µM | SNB-78 > 100 µM
